Test results published in ChEMBL document CHEMBL3507680, “University of Dundee, Gates Library screen for HepG2 cell viability”.

Assay: Human HepG2 cell viability assay in 384 well format
Assay type: toxicity, cell-based
Set-up: dose 125 nL, time 70.5 hour; concentration not given beside the values
Conditions: HepG2 cells, read-out: Inhibition

CC1CN(C(=O)c2cc(=O)[nH]c3ccc(F)cc23)CCO1 (stereo not given)
cytotoxicity at 70.5 h: 19.1%

CSCCC(C)NC(=O)N(C)Cc1cc(Cl)cn1C (stereo not given)
cytotoxicity at 70.5 h: -10.9%

Cc1cccc(C(=O)N2CCCN(CCc3scnc3C)CC2)c1
cytotoxicity at 70.5 h: -10.5%

CCS(=O)(=O)CC(C)NC(=O)N(C)Cc1cc(Cl)cn1C (stereo not given)
cytotoxicity at 70.5 h: -7.58%

CN(Cc1nccn1C)S(=O)(=O)Cc1cccc(C#N)c1
cytotoxicity at 70.5 h: -12.6%

CC(NCC1CCN(CCO)CC1)c1ccc(F)c(Cl)c1 (stereo not given)
cytotoxicity at 70.5 h: 0.00897%

CCN(Cc1ccccc1)S(=O)(=O)C1CCS(=O)(=O)CC1
cytotoxicity at 70.5 h: -10.9%

CC(=O)Nc1ccc(C(=O)N2CCSCC2c2ccc(C)o2)cc1 (stereo not given)
cytotoxicity at 70.5 h: -4.02%

Cc1ccc(C2CSCCN2C(=O)c2ccoc2C)o1 (stereo not given)
cytotoxicity at 70.5 h: -8.94%

CN(C(=O)CCN1CCCC1=O)c1cc(C#N)c2ccccc2n1
cytotoxicity at 70.5 h: 4.42%

N#Cc1ccc(F)c(CN2CCNC(=O)C2c2cccs2)c1 (stereo not given)
cytotoxicity at 70.5 h: 18%

N#Cc1cccc(OCCN2CCNC(=O)C2c2cccs2)c1 (stereo not given)
cytotoxicity at 70.5 h: -6%

Cc1ccc(S(=O)(=O)N2CCN(C)c3ccncc32)cc1F
cytotoxicity at 70.5 h: -4.45%

CCOCCNC(=O)c1ccc(OC)cc1I
cytotoxicity at 70.5 h: -6.65%

CN(CC(=O)NC1CC1)C(=O)c1csc(Br)c1
cytotoxicity at 70.5 h: -8.41%

CCOCC(=O)Nc1cccnc1-n1ccnc1C
cytotoxicity at 70.5 h: -6.13%

O=S(=O)(NC1CCCCC12OCCO2)c1ccc2c(c1)OCCO2 (stereo not given)
cytotoxicity at 70.5 h: -7.16%

N#Cc1ccc(OCCN2CCNC(=O)C2c2cccs2)cc1 (stereo not given)
cytotoxicity at 70.5 h: -6.87%

Cc1ccc(C2CSCCN2C(=O)c2cnsn2)o1 (stereo not given)
cytotoxicity at 70.5 h: -10.7%

Clc1ccc(Cc2nc(CNCCn3cccn3)cs2)cc1
cytotoxicity at 70.5 h: -1.63%

c1ccc(OCc2nc(CNCCn3cccn3)cs2)cc1
cytotoxicity at 70.5 h: 27%

COc1cccc(CNCc2cccnc2-n2cccn2)c1OC
cytotoxicity at 70.5 h: 19.6%

CC(C)CCN1CCN(C(=O)c2ccc(=O)[nH]n2)CC1
cytotoxicity at 70.5 h: -7.24%

CC(C)c1nc(CNC2CCN(S(C)(=O)=O)CC2)cs1
cytotoxicity at 70.5 h: 20.3%

O=C1CCN(CCCS(=O)(=O)c2ccc(Cl)cc2)CCN1
cytotoxicity at 70.5 h: -4.67%

COc1ccccc1CN(CC1CCCO1)C(=O)c1cc(C)n[nH]1 (stereo not given)
cytotoxicity at 70.5 h: -14.4%

CC1CN(C)CCN1C(=O)Nc1nc(-c2ccc[nH]2)cs1 (stereo not given)
cytotoxicity at 70.5 h: -14.7%

OC(CN1CCN(CCOCC(F)(F)F)CC1)c1ccccc1 (stereo not given)
cytotoxicity at 70.5 h: 24.5%

O=C(NCCc1nncn1C1CC1)c1cnn(Cc2ccccc2)c1
cytotoxicity at 70.5 h: -11.1%

CC(C)c1ocnc1C(=O)N1CC(=O)Nc2cccnc21
cytotoxicity at 70.5 h: -1.78%

COCCN1CCC(Nc2ccc(C#N)cc2F)CC1
cytotoxicity at 70.5 h: -13.7%

O=C1CCN(C(=O)c2ncoc2-c2ccco2)c2ncccc2N1
cytotoxicity at 70.5 h: -9.5%

CC(C)c1ocnc1C(=O)N1CCC(=O)Nc2cccnc21
cytotoxicity at 70.5 h: -13.9%

CC(C)(C)c1ccc(S(=O)(=O)CCN2CCNC(=O)CC2)cc1
cytotoxicity at 70.5 h: -10.4%

COC(C)C(=O)NS(=O)(=O)c1ccc(F)c(C(F)(F)F)c1 (stereo not given)
cytotoxicity at 70.5 h: -12.6%

CC(=O)NS(=O)(=O)c1ccc(F)c(C(F)(F)F)c1
cytotoxicity at 70.5 h: -6.35%

COc1cccc(NC(=O)NC2(c3noc(CN(C)C)n3)CCCC2)c1
cytotoxicity at 70.5 h: -10.2%

CN(C)Cc1nc(C2(NC(=O)Nc3cccc(F)c3)CCCC2)no1
cytotoxicity at 70.5 h: -2.26%

CN(C)Cc1nc(C2(NC(=O)Nc3ccccc3)CCCC2)no1
cytotoxicity at 70.5 h: -12.8%

Cc1cccc(C(=O)N2CCN(CCC(C)C)CC2)n1
cytotoxicity at 70.5 h: -11.4%

CCN(Cc1ccoc1)C(=O)NC1CCN(C(=O)OC(C)(C)C)C1 (stereo not given)
cytotoxicity at 70.5 h: -2.35%

Cc1cccc(CN(Cc2ccccn2)S(=O)(=O)N(C)C(C)C)c1
cytotoxicity at 70.5 h: -14%

COc1cccc(CNc2cccnc2-n2cccn2)c1OC
cytotoxicity at 70.5 h: -14.7%

Cc1ccc(C)c(CN2CCOC(c3noc(C)n3)C2)c1 (stereo not given)
cytotoxicity at 70.5 h: -4.49%

CCN(Cc1ccoc1)C(=O)C1CN(C(=O)OC(C)(C)C)C1
cytotoxicity at 70.5 h: -13.5%

COc1ccccc1CN(CC1CCCO1)C(=O)c1ccc(F)cn1 (stereo not given)
cytotoxicity at 70.5 h: -9.98%

CC(CNC1CCN(Cc2ccncc2)CC1)c1ccc(F)cc1F (stereo not given)
cytotoxicity at 70.5 h: -11%

COc1cccc(COc2nc(C(C)C)no2)c1
cytotoxicity at 70.5 h: 15.2%

NS(=O)(=O)c1ccc(CNCC(=O)NCc2ccc(Cl)cc2Cl)cc1
cytotoxicity at 70.5 h: -8.64%

O=S(=O)(NCc1ccc(S(=O)(=O)N2CCCC2)s1)c1cc(Cl)cc(Cl)c1
cytotoxicity at 70.5 h: -21.3%

CN(CCN1CCOC1=O)CC(=O)Nc1cc(F)cc(F)c1
cytotoxicity at 70.5 h: -19.7%

O=C(NCCCc1nc(=O)[nH][nH]1)Nc1cccc(F)c1
cytotoxicity at 70.5 h: -1.96%

O=C(NCCCc1nc(=O)[nH][nH]1)Nc1ccc(Cl)cc1
cytotoxicity at 70.5 h: -13.5%

CCn1c(CN(C)Cc2csc(C)n2)nc2cc(F)ccc21
cytotoxicity at 70.5 h: -20.1%

CC(C)C(CNCc1cccc2c1OCO2)N1CCOCC1 (stereo not given)
cytotoxicity at 70.5 h: 3.33%

Cc1csc(CCCNc2ccc(S(N)(=O)=O)cc2C#N)n1
cytotoxicity at 70.5 h: -22.6%

CCC(C(=O)Nc1ccc2nc(C)oc2c1)N1CCCC1=O (stereo not given)
cytotoxicity at 70.5 h: 20.5%

Cc1ccc(SC2CCCC2)c(C(=O)NCCc2n[nH]c(=O)[nH]2)c1
cytotoxicity at 70.5 h: 2.84%

Cc1nn(C)c(Cl)c1CN1CCN(c2nccs2)C(C)C1 (stereo not given)
cytotoxicity at 70.5 h: 2.61%

O=S(=O)(Cc1c(F)cccc1F)NCCOc1cccnc1
cytotoxicity at 70.5 h: 17.9%

COc1ccc(C)cc1CN(C)CCCNS(C)(=O)=O
cytotoxicity at 70.5 h: 7.17%

Cn1c(CCN2CCN(CCc3ccccc3)CC2)nc2ccccc21
cytotoxicity at 70.5 h: -6.23%

CN(CCCNc1cc(N2CCCC2CO)ncn1)S(C)(=O)=O (stereo not given)
cytotoxicity at 70.5 h: 11.1%

Cc1ccc(NC(C)C(=O)NCc2cccs2)cc1C (stereo not given)
cytotoxicity at 70.5 h: 18%

CS(=O)(=O)Cc1cccc(C(=O)NCC2Cc3ccccc3O2)c1 (stereo not given)
cytotoxicity at 70.5 h: -3.94%

O=C(Nc1nccs1)N1CCCC(N2CCNC2=O)C1 (stereo not given)
cytotoxicity at 70.5 h: 1.93%

CC(C)(C)NC(=O)C1CSCN1S(=O)(=O)c1cccc(F)c1 (stereo not given)
cytotoxicity at 70.5 h: -9.43%

CC(NC(=O)CCCOc1ccccc1Cl)c1ccncc1 (stereo not given)
cytotoxicity at 70.5 h: 13.5%

CN(C)C(=O)C1CCCN1CCCNC(=O)c1ccccc1F (stereo not given)
cytotoxicity at 70.5 h: -1.14%

COc1ccccc1CC(=O)NCCCN1CCCC1C(=O)N(C)C (stereo not given)
cytotoxicity at 70.5 h: 2.29%

Cc1nc(C)n(CC2CCCN(CCc3ccncc3)C2)n1 (stereo not given)
cytotoxicity at 70.5 h: -2.11%

Cc1csc(N2CCN(Cc3ccccn3)CC2C)n1 (stereo not given)
cytotoxicity at 70.5 h: -5.63%

Cc1cc(C)n(CC2CCCN2C(=O)c2ccc3c(c2)nnn3C)n1 (stereo not given)
cytotoxicity at 70.5 h: 1.66%

COc1ccc(NC(C)C(=O)NCCc2cccs2)cc1F (stereo not given)
cytotoxicity at 70.5 h: 9.05%

CSCC(CCO)NC(=O)Nc1cccc(Br)c1 (stereo not given)
cytotoxicity at 70.5 h: -0.357%

Cc1cc(C)n(CC2CCCN2C(=O)c2ccc3[nH]nnc3c2)n1 (stereo not given)
cytotoxicity at 70.5 h: 0.633%

CSCC(CCO)NC(=O)Nc1cc(Br)ccc1C (stereo not given)
cytotoxicity at 70.5 h: -3.57%

CC(C1CC1)N(C(=O)NCCCn1nc2ccccn2c1=O)C1CC1 (stereo not given)
cytotoxicity at 70.5 h: 2.18%

Cc1n[nH]c(C)c1C1CCCN1C(=O)NCC(=O)NC(C)(C)C (stereo not given)
cytotoxicity at 70.5 h: -2.7%

CC(C)S(=O)(=O)NCC1CCCN(C(=O)c2ccc3c(c2)CCC3)C1 (stereo not given)
cytotoxicity at 70.5 h: 1.31%

CC(C)S(=O)(=O)NCC1CCCN(C(=O)c2ccc3c(c2)OCCO3)C1 (stereo not given)
cytotoxicity at 70.5 h: -1.13%

Cc1nsc(N2CCCN(c3nc(C4CC4)ns3)CC2)n1
cytotoxicity at 70.5 h: 1.36%

Cc1nc2ccccn2c1CN(Cc1cccnc1)CC1CCCO1 (stereo not given)
cytotoxicity at 70.5 h: 0.351%

O=C(CN(Cc1cccnc1)CC1CCCO1)Nc1ccc(F)cc1 (stereo not given)
cytotoxicity at 70.5 h: 2.4%

Cc1n[nH]c(C)c1C1CCCN1C(=O)CNC(=O)C(C)(C)C (stereo not given)
cytotoxicity at 70.5 h: -0.174%
